# From EP4699605A1, “USE OF NOVEL COMPOUND FOR TREATING INTRACTABLE DISEASES” (YJ Cerapeutics Inc., priority 2023, dated 2024)
# Columns and labels:
# [1] = Observation of sedation as a side effect at high doses; assay type: in vivo, rats
# [2] = tested on: nerve injury animal models (SCI, LSS, SNI); experiment: Mechanical allodynia (von-Frey filaments, 50% paw withdrawal threshold) in nerve injury animal models; assay type: in vivo, Sprague-Dawley rats; settings: intraperitoneal 5 mg/kg; at 1 hour after administration
# Description: To be used as a central nerve injury animal model, a traumatic spinal cord injury (SCI) model was prepared (FIG. 1A). Specifically, 230 to 250 g of male adult Sprague-Dawley rats were anesthetized by intraperitoneal injection of chloral hydrate (500 mg/kg), and then the back and neck regions were shaved, and the spinal cord under the back and neck regions was exposed without damaging the dura mater, and a laminectomy was performed at T9 to T10 levels. To stabilize the spine, the spinous processes of T8 and T11 were fixed, and the spine was damaged by free-falling a 10 g weight from a height of 25 mm using an NYU impactor onto the back surface of the exposed spinal cord and then the rats were left in a temperature and humidity-controlled chamber overnight while covering the muscles and skin. After surgery, the rats were subcutaneously injected with a supplement solution (5 ml, lactated ringer) and injected with antibiotics (gentamicin, 5 mg/kg, intramuscular injection) once daily for 5 days. The body weight, remaining food, and the weight of water were confirmed and recorded for all animals, and the bladder was emptied twice daily by passive bladder massage until reflex micturition was established. At this time, a Sham group was a group that was subjected to only laminectomy without damage.
# To be used as a peripheral nerve injury animal model, a lumbar spinal stenosis (LSS) model was prepared (FIG. 1B). Specifically, 260 to 280 g of adult male Sprague-Dawley rats were anesthetized with intraperitoneal injection of chloral hydrate (500 mg/kg), the back region was shaved, and then the spinal plate was exposed at L4 to S2 levels. After removing the ligamentous section between L4 and L5, a trapezoidal silicone block (1.00 mm long × 1.3 to 1.2 mm wide × 1.0 mm high) was inserted into the epidural space below the L5 and L6 spinal plates without damaging the dural sac. At this time, a Sham group was a group that was subjected to only posterior […] on the animal without inserting a silicone block.
# To be used as a peripheral nerve injury animal model, a sciatic nerve injury (SNI) model was prepared (FIG. 1C). Specifically, 200 to 220 g of male adult Sprague-Dawley rats were anesthetized by intraperitoneal injection of chloral hydrate (500 mg/kg), and then three terminal branches (tibial, common peroneal, and sural nerves) of the right sciatic nerve were approached, and the tibia nerve and the peroneal nerve were tightly ligated with 4-0 silk, and neurectomy was performed at a distal 3 mm position of the ligation site. At this time, a Sham group was a group that exposed only the sciatic nerve without damage.
# In order to confirm a neuropathic pain inhibitory effect of YJ102 (Chemical Formula 1), a compound of the present disclosure, in the three nerve injury animal models prepared in Example 1 above, rats having pain on week 3 (SNI model) or week 4 (SCI model and LSS model) after surgery were selected and administered orally (p.o.) at 10 mg/kg or 20 mg/kg of YJ102 dissolved in a solution of DMSO, methyl pyrrolidinone, and water (1 : 1.5 : 1), or intraperitoneally injected (i.p. injection) at 1, 2, or 5 mg/kg of YJ102. In a positive control group, gabapentin or pregabalin dissolved in saline was intraperitoneally injected at a concentration of 5 mg/kg, and in a Vehicle group, the same amount of a solution of DMSO, methyl pyrrolidinone, and water was administered. Thereafter, in order to measure mechanical allodynia, the rats were located at the bottom of a transparent plastic box (10 cm × 10 cm) on top of a wire mesh (3 mm × 3 mm) and subjected to an adaptation period for approximately 20 minutes. Von-Frey filaments were applied to the soles of both paws and used with stiff nylon von-Frey monofilament series ([…], Stoelting, WoodDale, IL, USA; equivalent in grams to 0.4, 0.6, 1.0, 2.0, 4.0, 6.0, 8.0 and 15.0) with logarithmic increases in tactile (mechanical) sensitivity. […]
smiles,measurement,setting,value
"NCC1(CC(=O)O)CCCCC1 [gabapentin, reference compound]",sedation as a side effect,[1]; 50 mg/kg,observed
same,analgesic effect (mechanical allodynia),[2],significant analgesic effect
"CC(C)C[C@H](CN)CC(=O)O [pregabalin, reference compound]",sedation as a side effect,[1]; 20 mg/kg,observed
same,analgesic effect (mechanical allodynia),[2],significant analgesic effect
